For orientation: IC50 means the point on the concentration scale where inhibition reaches its midpoint. By Cmax is commonly meant the peak of the concentration-time curve. A word on the bioavailability: it is the share of a dose that reaches the circulation, judged against a reference dose that is usually intravenous. A high value points to good availability. By inhibition in vivo is commonly meant the percentage by which the read-out fell short of the control. The AUC is concentration integrated over time. Higher therefore signals high exposure.

From ChEMBL document CHEMBL1137052 (Bioorg Med Chem Lett, 2004) come the findings set out here.

SMILES strings stand for the structures.

The target in series [1] is T1, Polyunsaturated fatty acid 5-lipoxygenase (Homo sapiens, UniProt P09917).
T1 sequence (P09917 whole entry): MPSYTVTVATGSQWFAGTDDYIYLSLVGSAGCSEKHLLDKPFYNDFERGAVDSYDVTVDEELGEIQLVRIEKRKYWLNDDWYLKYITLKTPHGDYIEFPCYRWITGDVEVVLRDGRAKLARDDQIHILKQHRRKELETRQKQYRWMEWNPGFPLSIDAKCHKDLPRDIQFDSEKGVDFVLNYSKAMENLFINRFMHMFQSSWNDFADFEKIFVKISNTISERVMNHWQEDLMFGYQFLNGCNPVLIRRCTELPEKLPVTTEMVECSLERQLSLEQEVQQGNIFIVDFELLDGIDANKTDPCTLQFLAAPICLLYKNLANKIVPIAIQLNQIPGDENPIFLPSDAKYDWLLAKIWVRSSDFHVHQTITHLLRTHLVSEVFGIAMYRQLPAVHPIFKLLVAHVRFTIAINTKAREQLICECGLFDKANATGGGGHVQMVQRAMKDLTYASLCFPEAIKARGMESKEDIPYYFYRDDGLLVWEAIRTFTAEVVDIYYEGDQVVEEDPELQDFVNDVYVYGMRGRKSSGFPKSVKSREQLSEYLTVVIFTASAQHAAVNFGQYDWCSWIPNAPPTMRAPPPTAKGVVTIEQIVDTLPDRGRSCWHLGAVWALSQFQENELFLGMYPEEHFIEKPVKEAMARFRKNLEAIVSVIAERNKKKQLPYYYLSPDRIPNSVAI
Briefly: Inhibition of 5-lipoxygenase activity in human whole blood assay. Type of series: tissue-based.

Series [2] is described as follows: Maximum plasma concentration in rat upon oral/iv administration at 2 mg/kg. Type of series: ADME, organism-based. Details: dose 2 mg/kg.
A short description of series [3]: Bioavailability in rat (dose 2 mg/kg p.o./i.v.). Type of series: ADME, organism-based. Particulars: in vivo, po.
Series [4] in a line: Metabolic clearance in rat liver microsomes. Type of series: ADME, Microsome. Particulars: read-out: Clearance. (Liver microsomes are a subcellular fraction often used to study metabolism.)
In series [5] the test system is Cavia porcellus. Briefly: Percent inhibition of histamine-induced bronchoconstriction in guinea pig after 3h of oral dose of 2 mg/kg.
The nature of series [6]: Area under plasma concentration-time curve in rat upon oral/iv administration at 2 mg/kg. Type of series: ADME, organism-based. The arrangement: dose 2 mg/kg. The conditions noted are these: in vivo.
Series [7] concerns Cavia porcellus. Briefly: Percent inhibition of calcium ionophore-induced LTB4 production in guinea pig after 3h of oral dose of 2 mg/kg.
The nature of series [8]: Metabolic clearance in guinea pig liver microsomes. Particulars: read-out: Clearance. Type of series: ADME, Cavia porcellus, Microsome.
Series [9] in a line: Plasma concentration of compound in guinea pig after 3h of oral dose of 2 mg/kg. Type of series: ADME, organism-based, Cavia porcellus. The arrangement: dose 2 mg/kg, route oral.
Series [10] can be described thus: Metabolic clearance in human liver microsomes. Type of series: ADME, Microsome. The conditions noted are these: read-out: Clearance.
[11] abbreviates: read-out: Concentration, in vivo.

In turn, `NC(=O)N(O)CCC#Cc1ccc(OCCCN2CCN(C(c3ccc(F)cc3)c3ccc(F)cc3)CC2)cc1` came in with an IC50 in [1] of 90 nM.

Turning to `NC(=O)N(O)CCC#Cc1ccc(OCCN2CCC(=C3c4ccc(Cl)cc4CCc4cccnc43)CC2)cc1`, in series [2], the Cmax turned out to be 30 ng/mL. Besides, the bioavailability in [3] was 8%. Moreover, the figures for the microsomal CLint in series [4], in series [8] and in [10] were 101 µL/min/mg, 105 µL/min/mg and 15 µL/min/mg, respectively. Also, the values for the inhibition in vivo at 2 mg/kg in [5] and in [7] were 65% and 84%, respectively. The same molecule had an exposure (AUC) in series [6] of 83 ng·h/mL. The concentration in series [9] (in vivo) amounted to 72 ng/mL; in series [9] (setting [11]) it was 129 nM. This molecule also gave an IC50 in series [1] of 185 nM.

In the case of `NC(=O)N(O)CCC#Cc1ccc(OCCCCN2CCN([C@H](c3ccccc3)c3ccc(Cl)cc3)CC2)cc1`, the IC50 in series [1] is 68 nM. In other words, the double-digit nanomolar range.

Consider `NC(=O)N(O)CCC#Cc1ccc(OCCCN2CCN([C@H](c3ccccc3)c3ccc(Cl)cc3)CC2)cc1`, for which the microsomal CLint in series [4] came out at 108 µL/min/mg; in series [8], 99 µL/min/mg. The molecule also displayed an IC50 in series [1] of 96 nM.

The molecule `NC(=O)N(O)CCC#Cc1ccc(OCCN2CCN(C(c3ccc(F)cc3)c3ccc(F)cc3)CC2)cc1` returned a half-maximal inhibitory concentration (IC50) in series [1] of 48 nM.

As to `NC(=O)N(O)CCC#Cc1ccc(OCCCN2CCC(=C3c4ccc(Cl)cc4CCc4cccnc43)CC2)cc1`, in series [1], the IC50 was found to be 194 nM.

The molecule `NC(=O)N(O)CCC#Cc1ccc(OCCCCN2CCC(=C3c4ccc(Cl)cc4CCc4cccnc43)CC2)cc1` returned a half-maximal inhibitory concentration (IC50) in series [1] of 57 nM. Compared with the last molecule, the IC50 is about 3.4-fold lower.

`NC(=O)N(O)CCC#Cc1ccc(OCCN2CCN([C@H](c3ccccc3)c3ccc(Cl)cc3)CC2)cc1`: the highest concentration (Cmax) in series [2] worked out at 66 ng/mL. The same molecule returned a bioavailability in series [3] of 23%. Also, the microsomal CLint stood at 48 µL/min/mg in series [4], 19 µL/min/mg in series [8] and 2 µL/min/mg in series [10]. The values for the inhibition in vivo at 2 mg/kg in series [5] and in series [7] were 62% and 41%, respectively. In addition, the exposure (AUC) in [6] turned out to be 300 ng·h/mL. The concentration in [9] (in vivo) turned out to be 187 ng/mL; in [9] (setting [11]), 350 nM. The molecule further yielded an IC50 in [1] of 213 nM.

For `NC(=O)N(O)CCC#Cc1ccc(OCCCCN2CCN(C(c3ccc(F)cc3)c3ccc(F)cc3)CC2)cc1`, the microsomal CLint in series [4] was found to be 138 µL/min/mg; in series [8], 111 µL/min/mg; in series [10], 13 µL/min/mg. Also, the half-inhibitory concentration (IC50) in series [1] worked out at 89 nM.
